Experimental findings from patent US7645903B2, “Use of urea variants as affinity ligands” (GE Healthcare Bio-Sciences AB, priority 2002, dated 2010) are described below.

The subject of test [1] is human Fab of κ-type. Put plainly: STD-NMR binding test (saturation transfer difference NMR screening). The note with it: for NMR signal, conc 2: 100 nM protein; for NMR signal, conc 2 / NMR signal, conc 1 / NMR signal, conc 3: 0.5 mM ligand; for NMR signal, conc 1: 500 nM protein; for NMR signal, conc 3: 20 nM protein; for NMR signal at the first dilution of antibody concentration: conc 2, 100 nM; for binder designation from NMR screening: from signals at 500, 100 and 20 nM antibody; for NMR signal, Conc 2 (directed library): 100 nM antibody; for NMR signal, Conc 1 (directed library): 500 nM antibody. Further details: key to NMR signal, conc 1 / NMR signal, conc 2 / NMR signal, conc 3 / NMR signal, Conc 1 (directed library) / NMR signal, Conc 2 (directed library): 0 no; 1 weak; 2 strong signal. As for the experimental part: (§1) All NMR experiments were performed at 298 K on a Bruker Avance 500 MHz spectrometer. The 1D saturation transfer difference method (STD-NMR) was used as screening assay (Mayer M. and Meyer B. 1999. Characterisation of Ligand Binding by Saturation Transfer Difference NMR Spectroscopy. Angew. Chem., Int. Ed. 38: 1784-1788). […] The two spectra are recorded in the same experiment in an interleaved fashion. […] It has been shown that the method is capable of detecting ligands with dissociation constants between 10^−3 and 10^−8 M (Mayer M. and Meyer B. 1999. Characterisation of Ligand Binding by Saturation Transfer Difference NMR Spectroscopy. Angew. Chem, Int. Ed. 38: 1784-1788). The strength of the STD-NMR signal depends upon several factors including protein size, offset and duration of the on-resonance irradiation, the dissociation rate constant and the excess of ligand. The STD-NMR method is advantageous in that the detection limits can be tuned for binding by varying the protein concentration while keeping the ligand concentration constant. Under such conditions, at higher protein concentrations the weak to medium binders are detected, whereas at lower protein concentrations only medium binders are detected. For instance, it has been shown before for another enzyme system that both μM and mM binders were detected at a protein concentration of 35 μM whereas only μM binders were detected at protein concentrations of 1 μM and 100 nM (Peng J. W., Lepre C. A., Fejzo J., Abdul-Manan N. and Moore J. M. 2001, Nuclear Magnetic Resonance-Based Approaches for Lead Generation in Drug Discovery, Methods in Enzymology. 338: 202-230). It should be noted that the signal intensity at one specific protein concentration should not be taken as a direct measure of the binding strength. […] On the other hand the signal of the μM binder became even stronger than before (Peng J. W., Lepre C. A., Fejzo J., Abdul-Manan N. and Moore J. M. 2001, Nuclear Magnetic Resonance-Based Approaches for Lead Generation in Drug Discovery, Methods in Enzymology. 338: 202-230).
(§2) Here, three different antibody concentrations were used, namely, 0.5 μM, 100 nM and 20 nM. The antibody used was a human Fab of κ-type. In all cases ligands were tested one-by-one. On-resonance irradiation was set at 0 ppm and off-resonance irradiation was set at 40 ppm. Irradiation time in each scan was 2 s and 16K data points were collected with 1024 scans in total. Compounds for testing were dissolved in DMSOd6 to a concentration of 50 mM and 5 μL of the concentrated ligand solution was added to 495 μL buffer solution. The samples thus consisted of 0.5 mM ligand, 20 mM phosphate buffer, 100 mM NaCl and […] in D2O at pD 7.5, uncorrected reading on pH-meter. Compounds were initially tested for binding with 0.5 μM antibody. Interesting ligands were further tested with protein concentrations of 100 or 20 nM. A one-dimensional ^1H-spectrum was acquired first as reference spectrum and subsequently a saturation transfer difference (STD) spectrum was acquired. Each analysis took 60 minutes on the spectrometer.

Test [2] in a line: STD-NMR control in the absence of target antibody. Further details: key to NMR signal, ctrl: 0 no; 1 weak; 2 strong signal. The note with it: for NMR signal, ctrl: absence of target antibody. Here is the method: as §1, §2
These compounds were designated as weak binders. […] Of these, three compounds AB—0000860, AB—0000910 and AB—0001250 showing a clear signal (2 in table 1) were further analysed at a second dilution of antibody concentration (conc 3 in table 1).

With `OCC(Oc1ccccc1)c1ccccc1` (stereo not shown) [AB_0000810, 2-phenoxy-2-phenyl-1-ethanol], in test [1], the “NMR signal, conc 2” value is on record as 1 and the “NMR signal, conc 1” value is 2. The “NMR signal, ctrl” value in test [2] was 0.

For `COC(=O)C1OC1c1cc(Cl)ccc1OC` (stereo not shown) [AB_0001240, methyl 3-(5-chloro-2-methoxyphenyl)-2,3-epoxypropionate], in test [1], the “NMR signal, conc 2” value came out at 1 and the “NMR signal, conc 1” value is reported as 1. Moreover, in test [2], the “NMR signal, ctrl” value was found to be 0.

On to `COc1ccc(CC(C)=O)cc1Br` [AB_0000910, 3-bromo-4-methoxyphenylacetone], for which, in test [1], the “NMR signal, conc 3” value was found to be 0; the “NMR signal, conc 2” value is on record as 2; the “NMR signal, conc 1” value worked out at 2; the “NMR signal at the first dilution of antibody concentration” value (“NMR signal at the first dilution” for short) was “clear signal”. Further, the “NMR signal at a second dilution of antibody concentration” value in test [1] (conc 3, 20 nM) is recorded as “did not show any signal”. Also, in test [2], the “NMR signal, ctrl” value stood at 0.

Take `CC(C)=CC1=C(O)C(=O)c2ccccc2C1=O` [AB_0001040, 2-hydroxy-3-(2-methyl-1-propenyl)-1,4-naphthoquinone]: in test [1], the “NMR signal, conc 2” value is given as 1 and the “NMR signal, conc 1” value is recorded as 1. Also, in test [2], the “NMR signal, ctrl” value amounted to 0.

Take `CN(C)C(=O)N(C)c1ccc(Cl)c(Cl)c1` [AB_0001250, 1-(3,4-dichlorophenyl)-1,3,3-trimethylurea]: in test [1], the “NMR signal, conc 3” value is listed as 1; the “NMR signal, conc 2” value was 2; the “NMR signal, conc 1” value was found to be 2; the “NMR signal at the first dilution” value is reported as “clear signal”. Moreover, the “binder designation from NMR screening” value in test [1] is given as “strong binders”. In test [2], the “NMR signal, ctrl” value is 0.

Take `N#CCc1ccc(C(=O)c2ccccc2F)s1` [AB_0001010, 2-[5-(2-fluorobenzoyl)-2-thienyl]acetonitrile]: in test [1], the “NMR signal, conc 3” value came to 2; the “NMR signal, conc 2” value was found to be 2; the “NMR signal, conc 1” value came out at 2; the “binder designation from NMR screening” value was “false positive”. The “NMR signal, ctrl” value in test [2] stood at 1. Besides, the “NMR signal in the absence of target antibody” value in test [2] (no antibody) is listed as “positive NMR signal”.

As to `Clc1ccc(OCc2noc(CSc3ccccn3)n2)cc1` [AB_0001290, 3-[(4-chlorophenoxy)methyl]-5-[(2-pyridylthio)methyl]-1,2,4-oxadiazole], in test [1], the “NMR signal, conc 2” value is reported as 1 and the “NMR signal, conc 1” value came to 2. Besides, the “NMR signal, ctrl” value in test [2] is recorded as 0.

As for `O=C1CN(c2ccccc2)C(=O)N1c1ccccc1` [AB_0000860, 1,3-diphenylimidazolidine-2,4-dione], in test [1], the “NMR signal, conc 3” value was determined as 1; the “NMR signal, conc 2” value amounted to 2; the “NMR signal, conc 1” value was found to be 2; the “NMR signal at the first dilution” value is on record as “clear signal”. For the same molecule, the “binder designation from NMR screening” value in test [1] is “strong binders”. In test [2], the “NMR signal, ctrl” value worked out at 0.

On to `COC(=O)CCCN(C)C(=O)N(C)c1ccccc1` [AB_0001251, 4-(1,3-Dimethyl-3-phenyl-ureido)-butyric acid methyl ester], for which, in test [1], the “NMR signal, Conc 2 (directed library)” value worked out at 0 and the “NMR signal, Conc 1 (directed library)” value is 0. For the same molecule, the “interaction with the antibody in NMR screening of directed library” value in test [1] (two higher antibody concentrations) was “negative result”.

With `COC(=O)CCCN(C)C(=O)N(C)c1ccc(OC)c(F)c1` [AB_0001252, 4-[3-(3-Fluoro-4-methoxy-phenyl)-1,3-dimethyl-ureido]-butyric acid methyl ester], in test [1], the “NMR signal, Conc 2 (directed library)” value turned out to be 1 and the “NMR signal, Conc 1 (directed library)” value was determined as 1.

As for `c1ccc(-c2nnc3ccccc3n2)cc1` [AB_0000600, 3-phenyl-1,2,4-benzotriazine], in test [1], the “NMR signal, conc 2” value is recorded as 1 and the “NMR signal, conc 1” value worked out at 1. Further, the “NMR signal, ctrl” value in test [2] stood at 0.

For `N=c1sccn1CC(=O)c1ccc2ccccc2c1` [AB_0001060, 2-(2-imino-thiazol-3-yl)-1-naphthalen-2-yl-ethanone], in test [1], the “NMR signal, conc 2” value worked out at 0 and the “NMR signal, conc 1” value is recorded as 2.

For the molecule `CC1CN=C(SCc2ccccc2)N1.Cl` (stereo not shown) [AB_0001080, 2-(benzylthio)-5-methyl-4,5-dihydro-1h-imidazol-3-ium chloride], the “NMR signal, conc 1” value in test [1] stood at 0.

`COC(=O)CCCN(C)C(=O)N(C)c1ccc(OC)c(Cl)c1` [AB_0001253, 4-[3-(3-Chloro-4-methoxy-phenyl)-1,3-dimethyl-ureido]-butyric acid methyl ester]: in test [1], the “NMR signal, Conc 2 (directed library)” value was 1 and the “NMR signal, Conc 1 (directed library)” value came out at 2.

`COC(=O)NC(=O)c1nc(-c2ccccc2)c(C)o1` [AB_0000670, methyl n-[(5-methyl-4-phenyl-1,3-oxazol-2-yl)carbonyl]carbamate]: in test [1], the “NMR signal, conc 2” value is given as 0 and the “NMR signal, conc 1” value is on record as 2.

For `CCOC(=O)c1c[nH]c2ccccc2c1=O` [AB_0001100, ethyl 4-oxo-1,4-dihydroquinoline-3-carboxylate], the “NMR signal, conc 1” value in test [1] is 0.
